Here are results for six compounds from US20240116985A1, “STAPLED PEPTIDES AND METHODS THEREOF” (priority 2020, published 2024).

A word on the IC50: it is the concentration needed to halve the response being measured.

In this assay the target is T1, full-length beta-Catenin (Uniprot ID P35222) (Homo sapiens, UniProt P35222).
T1 construct: 10 nM full-length beta-Catenin (Uniprot ID P35222)
T1 sequence (P35222 1-781): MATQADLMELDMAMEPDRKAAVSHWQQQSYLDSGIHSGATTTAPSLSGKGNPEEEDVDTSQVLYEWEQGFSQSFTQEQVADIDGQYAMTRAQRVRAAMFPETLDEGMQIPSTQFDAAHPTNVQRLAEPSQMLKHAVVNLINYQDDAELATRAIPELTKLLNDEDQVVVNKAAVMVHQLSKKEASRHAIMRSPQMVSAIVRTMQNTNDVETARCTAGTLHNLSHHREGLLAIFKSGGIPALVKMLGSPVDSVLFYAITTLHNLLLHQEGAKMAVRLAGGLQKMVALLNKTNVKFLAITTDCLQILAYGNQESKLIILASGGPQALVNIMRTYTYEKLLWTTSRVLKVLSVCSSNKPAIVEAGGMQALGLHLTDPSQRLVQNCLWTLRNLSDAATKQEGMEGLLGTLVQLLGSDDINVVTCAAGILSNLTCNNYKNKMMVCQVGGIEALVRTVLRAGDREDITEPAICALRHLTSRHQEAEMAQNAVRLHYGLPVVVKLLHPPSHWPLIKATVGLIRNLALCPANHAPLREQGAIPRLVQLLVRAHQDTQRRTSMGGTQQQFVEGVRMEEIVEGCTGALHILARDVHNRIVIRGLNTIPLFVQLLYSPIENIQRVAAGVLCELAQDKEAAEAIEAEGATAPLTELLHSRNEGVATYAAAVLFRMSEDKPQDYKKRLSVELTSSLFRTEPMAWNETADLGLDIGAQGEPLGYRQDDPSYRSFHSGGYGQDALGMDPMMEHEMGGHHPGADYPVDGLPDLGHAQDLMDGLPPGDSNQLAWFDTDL
The assay is described as follows: Fluorescence polarization IC50 (beta-catenin / 5FAM-TCF4 10-53 competition). The format is binding. Conditions: fluorescence polarization; read-out: beta-Catenin FP IC50. Background: In fluorescence polarisation assays a small probe gives low polarisation when free and higher when bound to something large.

`CC(=O)N1CCC[C@]12CC=CCCCC1(CCCC=CCCCOC(=O)N3CC[C@@](C(=O)N[C@@H](Cc4ccsc4)C(=O)N[C@@H](Cc4cccc(F)c4F)C(=O)N[C@@H](CCC(N)=O)C(N)=O)(C3)NC(=O)[C@H](CC(C)C)NC(=O)[C@H](Cc3ccccc3)NC(=O)[C@H](C)NC(=O)[C@H](C)NC(=O)[C@H](CC(=O)O)NC(=O)[C@H](CC(=O)O)NC1=O)NC(=O)[C@H](CC(C)(C)C)NC(=O)[C@H](CC(=O)O)NC2=O` (stereo partly drawn) [I-1425, Ac-PL3-Asp-Npg-B5-Asp-Asp-Ala-Ala-Phe-Leu-PyrS2-3Thi-23FF-Gln-NH2]: the IC50 amounted to 239 nM. The value for `CC(=O)N1CCC[C@]12CC=CCCCC1(CCCC=CCCCOC(=O)N3CC[C@@](C(=O)N[C@@H](Cc4ccsc4)C(=O)N[C@@H](Cc4cccc(F)c4F)C(=O)N[C@@H](CO)C(N)=O)(C3)NC(=O)[C@H](CC(C)C)NC(=O)[C@H](Cc3ccccc3)NC(=O)[C@H](C)NC(=O)[C@H](C)NC(=O)[C@H](CC(=O)O)NC(=O)[C@H](CC(=O)O)NC1=O)NC(=O)[C@H](CC(C)(C)C)NC(=O)[C@H](CC(=O)O)NC2=O` (stereo partly drawn) [I-1426, Ac-PL3-Asp-Npg-B5-Asp-Asp-Ala-Ala-Phe-Leu-PyrS2-3Thi-23FF-Ser-NH2] was 203 nM.

Consider `CC(=O)N1CCC[C@]12CC=CCCCC1(CCCC=CCCCOC(=O)N3CC[C@@](C(=O)N[C@@H](Cc4ccsc4)C(=O)N[C@@H](Cc4ccc(F)c(F)c4)C(=O)N[C@@H](CCC(N)=O)C(N)=O)(C3)NC(=O)[C@H](CC(C)C)NC(=O)[C@H](Cc3ccccc3)NC(=O)[C@H](C)NC(=O)[C@H](C)NC(=O)[C@H](CC(=O)O)NC(=O)[C@H](CC(=O)O)NC1=O)NC(=O)[C@H](CC(C)(C)C)NC(=O)[C@H](CC(=O)O)NC2=O` (stereo partly drawn) [I-1427, Ac-PL3-Asp-Npg-B5-Asp-Asp-Ala-Ala-Phe-Leu-PyrS2-3Thi-34FF-Gln-NH2], for which the IC50 was 33 nM. The value for `CC(=O)N1CCC[C@]12CC=CCCCC1(CCCC=CCCCOC(=O)N3CC[C@@](C(=O)N[C@@H](Cc4ccsc4)C(=O)N[C@@H](Cc4ccc(F)c(F)c4)C(=O)N[C@@H](CO)C(N)=O)(C3)NC(=O)[C@H](CC(C)C)NC(=O)[C@H](Cc3ccccc3)NC(=O)[C@H](C)NC(=O)[C@H](C)NC(=O)[C@H](CC(=O)O)NC(=O)[C@H](CC(=O)O)NC1=O)NC(=O)[C@H](CC(C)(C)C)NC(=O)[C@H](CC(=O)O)NC2=O` (stereo partly drawn) [I-1428, Ac-PL3-Asp-Npg-B5-Asp-Asp-Ala-Ala-Phe-Leu-PyrS2-3Thi-34FF-Ser-NH2] was 41 nM. Take `CC(=O)N1CCC[C@]12CC=CCCCC1(CCCC=CCCCOC(=O)N3CC[C@@](C(=O)N[C@@H](Cc4ccsc4)C(=O)N[C@@H](Cc4cn(C)c5ccccc45)C(=O)N[C@@H](CCC(N)=O)C(N)=O)(C3)NC(=O)[C@H](CC(C)C)NC(=O)[C@H](Cc3ccccc3)NC(=O)[C@H](C)NC(=O)[C@H](C)NC(=O)[C@H](CC(=O)O)NC(=O)[C@H](CC(=O)O)NC1=O)NC(=O)[C@H](CC(C)(C)C)NC(=O)[C@H](CC(=O)O)NC2=O` (stereo partly drawn) [I-1433, Ac-PL3-Asp-Npg-B5-Asp-Asp-Ala-Ala-Phe-Leu-PyrS2-3Thi-1MeW-Gln-NH2]: the 50% inhibitory concentration (IC50) is 71 nM. As for `CC(=O)N1CCC[C@]12CC=CCCCC1(CCCC=CCCCOC(=O)N3CC[C@@](C(=O)N[C@@H](Cc4ccsc4)C(=O)N[C@@H](Cc4cn(C)c5ccccc45)C(=O)N[C@@H](CO)C(N)=O)(C3)NC(=O)[C@H](CC(C)C)NC(=O)[C@H](Cc3ccccc3)NC(=O)[C@H](C)NC(=O)[C@H](C)NC(=O)[C@H](CC(=O)O)NC(=O)[C@H](CC(=O)O)NC1=O)NC(=O)[C@H](CC(C)(C)C)NC(=O)[C@H](CC(=O)O)NC2=O` (stereo partly drawn) [I-1434, Ac-PL3-Asp-Npg-B5-Asp-Asp-Ala-Ala-Phe-Leu-PyrS2-3Thi-1MeW-Ser-NH2], the IC50 is 83 nM.
